The record followed here is US20240287089A1, “Preparation and Uses of 7-Azaindenoisoquinolines” (Purdue Research Foundation, priority 0001, published 2024).

A word on the GI50: it is the concentration that inhibits growth by half.

One assay deals with DU-145 (Prostate). Briefly: NCI-60 cytotoxicity assay. It is filed as cell-based, human. The settings on record: Homo sapiens; DU-145 prostate; 48 h, sulforhodamine B; read-out: Comparative Cytotoxicity GI50, Prostate DU-145. The procedure: (§1) The antiproliferative activities of the indenoisquinoline compounds are determined in the NCI-60 cancer cell lines of the National Cancer Institute Developmental Therapeutics Program (NCI-DTP). […] Cancer cells are incubated with the test compounds at five concentrations ranging from 100 μM to 10 nM for 48 h. After the treated cancer cells are stained with sulforhodamine B dye, the percentage growth is plotted as a function of the common logarithm of the tested compound concentration. […] The approximate average of GI50 values across the entire panel of NCI-60 cancer cell lines for each compound is recorded as the MGM value.
(§2) NCI-60 Cytotoxicity Assay. Compounds were submitted to the National Cancer Institute Developmental Therapeutic Program to determine their growth-inhibitory potentials in NCI-60 cell lines. All compounds satisfied the pre-screening proceeded into the 5-dose cell viability assay, in which cells were treated for 48 h at 5 dosages ranging from 100 μM to 10 nM.

The next assay concerns HCT-116 (Colon). Description: NCI-60 cytotoxicity assay. It is filed as cell-based, human. The settings on record: Homo sapiens; HCT-116 colon; 48 h, sulforhodamine B; read-out: Comparative Cytotoxicity GI50, Colon HCT-116. The method, then: as §1, §2
The test system of another assay is HOP-62 (Lung). Description: NCI-60 cytotoxicity assay. The format is cell-based, human. The settings on record: Homo sapiens; HOP-62 lung; 48 h, sulforhodamine B; read-out: Comparative Cytotoxicity GI50, Lung HOP-62. The method, then:
as §1, §2

Another assay has as its system MCF7 (Breast). Description: NCI-60 cytotoxicity assay. It is filed as cell-based, human. The settings on record: Homo sapiens; MCF7 breast; 48 h, sulforhodamine B; read-out: Comparative Cytotoxicity GI50, Breast MCE7. The procedure: as §1, §2
In a further assay the test system is OVCAR-3 (Ovarian). Briefly: NCI-60 cytotoxicity assay. It is filed as cell-based, human. The settings on record: Homo sapiens; OVCAR-3 ovarian; 48 h, sulforhodamine B; read-out: Comparative Cytotoxicity GI50, Ovarian OVCAR-3. The procedure: as §1, §2
In the next assay the test system is SN12C (Renal). Briefly: NCI-60 cytotoxicity assay. It is filed as cell-based, human. The settings on record: Homo sapiens; SN12C renal; 48 h, sulforhodamine B; read-out: Comparative Cytotoxicity GI50, Renal SN12C. The method, then: as §1, §2
Another assay relates to UACC-62 (Melanoma). Description: NCI-60 cytotoxicity assay. It is filed as cell-based, human. The settings on record: Homo sapiens; UACC-62 melanoma; 48 h, sulforhodamine B; read-out: Comparative Cytotoxicity GI50, Melanoma UACC-62. The method, then: as §1, §2
The subject of another assay is SF-539 (CNS). Briefly: NCI-60 cytotoxicity assay. The format is cell-based. The settings on record: Homo sapiens; SF-539 CNS; 48 h, sulforhodamine B; read-out: Comparative Cytotoxicity GI50, CNS SF-539. The procedure:
as §1, §2

For a further assay, the system named is NCI-60 cancer cell lines. Description: NCI-60 cytotoxicity assay, MGM. It is filed as cell-based. The settings on record: Homo sapiens; entire panel of NCI-60 cancer cell lines; read-out: MGM (approximate average of GI50 values across the NCI-60 panel). The method, then: as §1, §2

`COc1cc2c3c(n(CCCNC4CCCCC4)c(=O)c2cc1OC)-c1cc2c(cc1C3=O)OCO2` [A7]: the GI50 in the assay with DU-145 (Prostate) was found to be 1840 nM; with HCT-116 (Colon), 1320 nM; in the assay on HOP-62 (Lung) it was 15900 nM; in the assay with MCF7 (Breast), 1060 nM; in the assay on OVCAR-3 (Ovarian), 11000 nM; with SN12C (Renal), 18600 nM. Also, the values for the concentration for 50% growth inhibition (GI50) in the assay with UACC-62 (Melanoma), in the assay on SF-539 (CNS) and in the assay with NCI-60 cancer cell lines were 28400 nM, 7740 nM and 6020 nM, respectively.

For `COc1cc2c3c(n(CCCN4CCCC4)c(=O)c2cc1OC)-c1cc2c(cc1C3=O)OCO2` [A4], the GI50 stood at 1310 nM in the assay with DU-145 (Prostate); 1140 nM in the assay on HCT-116 (Colon); 800 nM with HOP-62 (Lung); 380 nM with MCF7 (Breast); 1500 nM in the assay on OVCAR-3 (Ovarian); 1640 nM with SN12C (Renal). Besides, the GI50 in the assay with UACC-62 (Melanoma) turned out to be 1480 nM; with SF-539 (CNS), 1330 nM; with NCI-60 cancer cell lines, 1100 nM.

Turning to `COc1cc2c3c(n(CCCNC4CCC4)c(=O)c2cc1OC)-c1cc2c(cc1C3=O)OCO2` [A2], the GI50 with DU-145 (Prostate) came to 790 nM; with HCT-116 (Colon) it was 900 nM; in the assay with HOP-62 (Lung) it was 220 nM; in the assay with MCF7 (Breast) it was 57 nM; in the assay with OVCAR-3 (Ovarian) it was 1380 nM; in the assay with SN12C (Renal) it was 1440 nM. Further, the GI50 in the assay with UACC-62 (Melanoma) was found to be 1400 nM; in the assay with SF-539 (CNS) it was 1050 nM; in the assay with NCI-60 cancer cell lines, 870 nM.

As to `COc1cnc2c(c1)C(=O)c1c-2n(CCCNC(C)C)c(=O)c2cc(OC)c(OC)cc12` [A11], the GI50 came to 1270 nM in the assay with DU-145 (Prostate); 1020 nM in the assay on HCT-116 (Colon); 700 nM in the assay with HOP-62 (Lung); 220 nM with MCF7 (Breast); 8990 nM in the assay with OVCAR-3 (Ovarian); 4190 nM in the assay with SN12C (Renal). Further, the GI50 in the assay on UACC-62 (Melanoma) is 2430 nM; in the assay on SF-539 (CNS), 1360 nM; with NCI-60 cancer cell lines it was 2340 nM.

For the compound `COc1cc2c3c(n(CCCNC4CCCC4)c(=O)c2cc1OC)-c1cc2c(cc1C3=O)OCO2` [A3], the 50% growth inhibitory concentration (GI50) in the assay with DU-145 (Prostate) amounted to 1440 nM; in the assay with HCT-116 (Colon), 1200 nM; in the assay with HOP-62 (Lung), 2380 nM; in the assay on MCF7 (Breast), 670 nM; with OVCAR-3 (Ovarian) it was 1640 nM; in the assay with SN12C (Renal), 1800 nM. For the same compound, the GI50 came out at 13000 nM in the assay with UACC-62 (Melanoma), 1510 nM with SF-539 (CNS) and 2690 nM in the assay on NCI-60 cancer cell lines.

Consider `COc1cc2c3c(n(CCCN4CCCCC4)c(=O)c2cc1OC)-c1cc2c(cc1C3=O)OCO2` [A6], for which the concentration for 50% growth inhibition (GI50) is 1370 nM with DU-145 (Prostate); 420 nM in the assay on HCT-116 (Colon); 1050 nM in the assay with HOP-62 (Lung); 140 nM in the assay with MCF7 (Breast); 1630 nM with OVCAR-3 (Ovarian); 1610 nM in the assay with SN12C (Renal). The 50% growth inhibitory concentration (GI50) in the assay with UACC-62 (Melanoma) was 1380 nM; in the assay on SF-539 (CNS) it was 1460 nM; in the assay on NCI-60 cancer cell lines it was 1050 nM.

`COc1cnc2c(c1)C(=O)c1c-2n(CCCNCC2CC2)c(=O)c2cc(OC)c(OC)cc12` [A10]: the GI50 came to 960 nM in the assay with DU-145 (Prostate); 400 nM in the assay with HCT-116 (Colon); 670 nM in the assay on HOP-62 (Lung); 160 nM in the assay with MCF7 (Breast); 1820 nM in the assay on OVCAR-3 (Ovarian); 440 nM with SN12C (Renal). Besides, the GI50 in the assay on UACC-62 (Melanoma) turned out to be 840 nM; in the assay on SF-539 (CNS), 1000 nM; in the assay on NCI-60 cancer cell lines, 860 nM.

Regarding `COc1cnc2c(c1)C(=O)c1c-2n(CCCn2ccnc2)c(=O)c2cc(OC)c(OC)cc12` [A8], the concentration for 50% growth inhibition (GI50) with DU-145 (Prostate) amounted to 61 nM; in the assay with HCT-116 (Colon), 110 nM; with HOP-62 (Lung) it was 42 nM; in the assay with MCF7 (Breast) it was 30 nM; with OVCAR-3 (Ovarian) it was 600 nM; in the assay on SN12C (Renal), 56 nM. Moreover, the GI50 in the assay on UACC-62 (Melanoma) was 40 nM; with SF-539 (CNS) it was 53 nM; in the assay with NCI-60 cancer cell lines, 240 nM.

As to `COc1cnc2c(c1)C(=O)c1c-2n(CCCNCCO)c(=O)c2cc(OC)c(OC)cc12` [A12], the concentration for 50% growth inhibition (GI50) in the assay with DU-145 (Prostate) stood at 730 nM; with HCT-116 (Colon) it was 1150 nM; with HOP-62 (Lung), 350 nM; with MCF7 (Breast), 170 nM; in the assay on OVCAR-3 (Ovarian), 4520 nM; in the assay on SN12C (Renal) it was 3280 nM. The 50% growth inhibitory concentration (GI50) in the assay with UACC-62 (Melanoma) came out at 1170 nM; with SF-539 (CNS) it was 490 nM; with NCI-60 cancer cell lines it was 2090 nM.

As for `COc1cc2c3c(n(CCCN4CCC[C@H]4C(N)=O)c(=O)c2cc1OC)-c1cc2c(cc1C3=O)OCO2` [A5], the GI50 in the assay on DU-145 (Prostate) worked out at 38 nM; with HCT-116 (Colon), 35 nM; with HOP-62 (Lung), 31 nM; in the assay on MCF7 (Breast) it was 10 nM; in the assay with OVCAR-3 (Ovarian), 160 nM; in the assay on SN12C (Renal) it was 42 nM. In addition, the concentration for 50% growth inhibition (GI50) with UACC-62 (Melanoma) is 21 nM; with SF-539 (CNS), 30 nM; in the assay on NCI-60 cancer cell lines, 125 nM.
